We go through one molecule from patent publication US5001258A, “Antibiotic, fumifungin, a microbial process for the preparation thereof, and the use thereof as a pharmaceutical” (Hoechst Aktiengesellschaft, priority 1987, dated 1991).

Each structure is given as a SMILES string. Some results are limits rather than exact numbers.

Data set [1] has as its system fungi. Description: fungicidal properties. The data set is classed as cell-based.
Data set [2] deals with Aspergillus niger. Kind of data set: MIC of fumifungin, growth inhibition of Aspergillus niger. The data set is classed as cell-based.
Data set [3] concerns Candida albicans. Description: MIC of fumifungin, growth inhibition of Candida albicans. The data set is classed as cell-based.
Data set [4] deals with Alternaria solani. Description: MIC of fumifungin, growth inhibition of Alternaria solani. Type of data set: cell-based.
The nature of data set [5]: Solubility (physicochemical properties of fumifungin). To be noted: solvents in which soluble.
The test system of data set [6] is Saccharomyces cerevisiae. Kind of data set: MIC of fumifungin, growth inhibition of Saccharomyces cerevisiae. Type of data set: cell-based.
In data set [7] the test system is Cercospora beticola. Kind of data set: MIC of fumifungin, growth inhibition of Cercospora beticola. The data set is classed as cell-based.
In data set [8] the test system is Cladosporium resinae. Description: MIC of fumifungin, growth inhibition of Cladosporium resinae. The data set is classed as cell-based. To be noted: Amorphotheca resinae.
Data set [9] relates to Wild yeast. Description: MIC of fumifungin, growth inhibition of Wild yeast. Type of data set: cell-based.
In data set [10] the test system is bacteria. Description: bactericidal properties. The data set is classed as cell-based.

For orientation: MIC means the smallest concentration in the dilution series that meets the test's criterion for growth inhibition. For the molecule `CCCCCCC(O)CCCCCCC=CC(O)C(OC(C)=O)C(O)C(N)C(=O)O` (stereo not shown) [fumifungin, 2-amino-4-acetoxy-3,5,14-tri-hydroxy-Δ^6-eicosenoic acid], the fungicidal properties result in data set [1] is “fungicidal”. Moreover, the MIC in [2] was above 7.8 mg/mL; in [3], 62.5 mg/mL; in [4] it was 31.2 mg/mL; in data set [6], 62.5 mg/mL; in data set [7], 0.9 mg/mL; in data set [8] it was above 0.9 mg/mL. The MIC in data set [9] worked out at 62.5 mg/mL. Besides, the Solubility result in data set [5] is recorded as “methanol, DMSO”. Further, the bactericidal properties result in data set [10] is given as “bactericidal”.
